Results as given in PMC3083694, “Effects of Intermediates between Vitamins K2 and K3 on Mammalian DNA Polymerase Inhibition and Anti-Inflammatory Activity” (International Journal of Molecular Sciences, 2011).

Key:
[1] = biological target: T1, Human DNA polymerase κ (Homo sapiens, UniProt Q9UBT6); assay: DNA polymerase activity assay, human pol κ; type: biochemical; details: for Inhibitory effect on human pol κ activity: 50 μM of each compound, Figure 2
T1 construct: made in house
T1 sequence (Q9UBT6 1-560 limits assumed): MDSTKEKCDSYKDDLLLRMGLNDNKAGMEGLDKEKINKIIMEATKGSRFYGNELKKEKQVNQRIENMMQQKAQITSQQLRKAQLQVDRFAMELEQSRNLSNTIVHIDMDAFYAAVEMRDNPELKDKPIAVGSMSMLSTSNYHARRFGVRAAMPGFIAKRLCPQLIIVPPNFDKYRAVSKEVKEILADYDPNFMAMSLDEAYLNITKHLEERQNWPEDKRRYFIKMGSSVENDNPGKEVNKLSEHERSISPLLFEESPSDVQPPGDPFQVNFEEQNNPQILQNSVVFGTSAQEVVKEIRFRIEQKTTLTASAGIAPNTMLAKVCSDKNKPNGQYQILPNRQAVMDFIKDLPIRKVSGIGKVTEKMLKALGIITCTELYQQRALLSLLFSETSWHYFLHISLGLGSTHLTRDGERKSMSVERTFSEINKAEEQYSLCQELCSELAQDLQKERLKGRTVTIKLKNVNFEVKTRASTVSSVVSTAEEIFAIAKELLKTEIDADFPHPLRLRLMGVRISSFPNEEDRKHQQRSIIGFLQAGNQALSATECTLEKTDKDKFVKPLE
Protocol: Pols from mammals, a fish (cherry salmon), an insect (fruit fly) and a plant (cauliflower) were purified, and prokaryotic pols and other DNA metabolic enzymes, such as T7 RNA polymerase, T4 polynucleotide kinase and bovine deoxyribonuclease I, were purchased as described in our previous report. The activities of all pols and other DNA metabolic enzymes were measured as described in previous reports.
The components of the pol assay were poly(dA)/oligo(dT)18 and dTTP as the DNA template-primer and 2′-deoxyribonucleoside 5′-triphosphate (dNTP) substrate, respectively. VK2, VK3, and their synthesized derivatives (i.e., MK-3, MK-2 and MK-1) were dissolved in dimethyl sulfoxide (DMSO) at various concentrations and sonicated for 30 s. The sonicated samples (4 μL) were mixed with 16 μL of each pol enzyme (final amount, 0.05 units) in 50 mM Tris-HCl (pH 7.5) containing 1 mM dithiothreitol, 50% glycerol and 0.1 mM EDTA, and kept at 0 °C for 10 min. These inhibitor–enzyme mixtures (8 μL) were added to 16 μL of each standard enzyme reaction mixture (50 mM Tris-HCl [pH 7.5], 1 mM dithiothreitol, 1 mM MgCl2, 15% glycerol, 10 μM poly(dA)/oligo(dT)18 and 10 μM [^3H]-dTTP), and incubation was carried out at 37 °C for 60 min, except for Taq pol, which was incubated at 74 °C for 60 min. Activity without the inhibitor was considered to be 100%, and the activity remaining at each concentration of inhibitor was determined relative to this value. One unit of pol activity was defined as the amount of enzyme that catalyzed the incorporation of 1 nmol dNTP (dTTP) into the synthetic DNA template-primer (poly(dA)/oligo(dT)18, A/T = 2/1) in 60 min at 37 °C under normal reaction conditions for each enzyme (scintillation counts: approximately 1 pmol of incorporated radioactive nucleotides = 100 cpm).

[2] = test system: LPS-induced production of TNF-α in RAW264.7 cells; assay: LPS-induced TNF-α production in mouse macrophages (ELISA); type: cell-based; details: Figure 4; for Suppression of LPS-stimulated production of TNF-α: then 100 ng/mL LPS 24 h; for Inhibitory effect on LPS-stimulated TNF-α production: 10 and 50 μM tested, concentration not specified
Protocol: A mouse macrophage cell line, RAW264.7, was obtained from American Type Culture Collection (ATCC) (Manassas, VA, U.S.). The cells were cultured in Eagle’s Minimum Essential Medium (MEM) supplemented with 4.5 g of glucose per liter plus 10% fetal calf serum, 5 mM L-glutamine, 50 units/mL penicillin and 50 units/mL streptomycin. The cells were cultured at 37 °C in standard medium in a humidified atmosphere of 5% CO2–95% air.
RAW264.7 cells were placed in a 12-well plate at 5 × 10^4 cells/well and incubated for 24 h. The cells were pretreated with the VK2 and VK3 intermediates (final concentrations of 10 and 50 μM) for 30 min before the addition of 100 ng/mL of LPS. After stimulation with LPS for 24 h, the cell culture medium was collected to measure the amount of TNF-α secreted. The concentration of TNF-α in the culture medium was quantified by using a commercially available enzyme-linked immunosorbent assay (ELISA) development system (Bay Bioscience Co., Ltd., Kobe, Japan) in accordance with the manufacturer’s protocol.

Structure (SMILES)	Inhibitory effect on human pol κ activity [1]	Suppression of LPS-stimulated production of TNF-α ([2]; 50 μM compound 30 min)	IC50 ([1]; Y-family pol, read-out: IC50 Value of MK-2, Human DNA polymerase κ)	Suppression of LPS-stimulated production of TNF-α ([2]; 10 μM compound 30 min)	Inhibitory effect on LPS-stimulated TNF-α production [2]
CC(C)=CCC1=C(C)C(=O)c2ccccc2C1=O [MK-1]	inhibited the activity	significantly suppressed	–	–	–
CC(C)=CCC/C(C)=C/CC1=C(C)C(=O)c2ccccc2C1=O [MK-2]	inhibited the activity	significantly suppressed	35.3 ± 2.1 µM	significantly suppressed	–
CC(C)=CCC/C(C)=C/CC/C(C)=C/CC1=C(C)C(=O)c2ccccc2C1=O [MK-3]	inhibited the activity	–	–	–	moderate inhibitory effect
CC(C)=CCC/C(C)=C/CC/C(C)=C/CC/C(C)=C/CC1=C(C)C(=O)c2ccccc2C1=O [MK-4, menaquinone 4, reference compound]	had no effect on pol activity	–	–	–	moderate inhibitory effect
